Data set [1] concerns the target EGFR wild type (EGFR WT) (Homo sapiens (Human), UniProt P00533). Description: Cellular Phosphorylation Assay, Assay 5 (EGF-stimulated EGFR phosphorylation, NIH 3T3 cells). In kind it is cell-based.
Data set [2] has as its target ErbB2 with Exon 20 YVMA insertion (HER2-YVMA) (Homo sapiens (Human), UniProt P04626, INS775YVMA). Description: Cellular Phosphorylation Assay, Assay 4 (constitutive ErbB2 phosphorylation, NIH 3T3 cells). It counts as cell-based.
The target in data set [3] is ErbB2 WT (Homo sapiens (Human), UniProt P04626). Briefly: ErbB Enzyme Assay (HTRF KinEASE-TK), Assay 2. In kind it is biochemical. (In general: In TR-FRET formats the signal depends on donor and acceptor labels being close together.)
Sequence of ErbB2 WT (P04626 23-1255): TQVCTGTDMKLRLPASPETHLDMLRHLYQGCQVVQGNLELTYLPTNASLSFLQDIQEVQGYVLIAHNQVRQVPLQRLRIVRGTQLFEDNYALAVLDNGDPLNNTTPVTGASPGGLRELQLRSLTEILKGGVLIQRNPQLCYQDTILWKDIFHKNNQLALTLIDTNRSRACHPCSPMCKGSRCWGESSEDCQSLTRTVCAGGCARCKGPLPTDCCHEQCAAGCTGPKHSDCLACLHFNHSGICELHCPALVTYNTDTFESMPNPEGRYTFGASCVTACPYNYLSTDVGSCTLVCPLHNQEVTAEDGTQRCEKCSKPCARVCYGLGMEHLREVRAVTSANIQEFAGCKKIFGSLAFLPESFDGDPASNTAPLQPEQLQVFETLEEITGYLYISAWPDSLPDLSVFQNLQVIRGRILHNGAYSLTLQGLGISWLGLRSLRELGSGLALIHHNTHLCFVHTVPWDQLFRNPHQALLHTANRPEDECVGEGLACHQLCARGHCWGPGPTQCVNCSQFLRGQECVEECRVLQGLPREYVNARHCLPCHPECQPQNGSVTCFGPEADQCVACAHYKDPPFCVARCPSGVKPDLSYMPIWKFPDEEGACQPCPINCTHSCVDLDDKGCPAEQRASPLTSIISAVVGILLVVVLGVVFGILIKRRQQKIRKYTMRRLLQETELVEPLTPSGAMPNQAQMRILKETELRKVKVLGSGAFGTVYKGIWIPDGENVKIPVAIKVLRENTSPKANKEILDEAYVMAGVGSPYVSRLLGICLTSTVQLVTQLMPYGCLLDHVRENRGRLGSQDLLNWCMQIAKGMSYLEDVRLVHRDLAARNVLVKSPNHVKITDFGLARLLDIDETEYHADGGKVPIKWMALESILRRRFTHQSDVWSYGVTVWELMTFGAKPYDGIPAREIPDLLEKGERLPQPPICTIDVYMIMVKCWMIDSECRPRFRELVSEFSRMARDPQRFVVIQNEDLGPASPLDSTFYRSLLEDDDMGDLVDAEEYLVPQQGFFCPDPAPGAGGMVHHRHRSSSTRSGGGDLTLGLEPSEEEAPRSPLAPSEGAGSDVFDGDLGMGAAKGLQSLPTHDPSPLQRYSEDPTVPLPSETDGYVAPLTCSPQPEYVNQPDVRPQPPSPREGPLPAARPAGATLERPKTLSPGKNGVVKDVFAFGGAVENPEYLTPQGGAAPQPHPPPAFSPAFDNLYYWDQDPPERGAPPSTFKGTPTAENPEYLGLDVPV
Data set [4] addresses EGFR (Homo sapiens (Human), UniProt P00533). Briefly: ErbB Enzyme Assay (HTRF KinEASE-TK), Assay 3. It counts as biochemical.
In data set [5] the target is BCRP (Homo sapiens (Human), UniProt Q9UNQ0). Description: BCRP MDCKII efflux assay (Assay 7). The conditions noted are these: dog; efflux ratio Papp(B-A)/Papp(A-B), BCRP MDCKII cells; read-out: Assay 7 Pe Ratio. It counts as in vitro ADME. The procedure:
Assay conditions included with and without the BCRP-specific inhibitor, KO143, at a concentration of 0.3 μM to ascertain the contribution of BCRP to the efflux value of the test compound.
Final organic concentration in the assay was 1%.

Data set [6] deals with MDR1 (P-gp) (Homo sapiens (Human), UniProt P08183). Description: in vitro. Conditions: pig, LLC-PK1.
Setting [7] is: EGF-stimulated EGFR WT phosphorylation.
Where [8] appears, read: cellular EGFR WT phosphorylation, EGF-stimulated.
[9] abbreviates: cellular ErbB2 YVMA phosphorylation.

The record followed here is patent US12447153B2, “HER2 mutation inhibitors” (Array BioPharma Inc., priority 2021, dated 2025).

In general, pIC50 refers to −log10 of the IC50, conventionally taken in molar units.

pIC50: −log10 of the molar value.

Sequence of BCRP (Q9UNQ0 whole entry): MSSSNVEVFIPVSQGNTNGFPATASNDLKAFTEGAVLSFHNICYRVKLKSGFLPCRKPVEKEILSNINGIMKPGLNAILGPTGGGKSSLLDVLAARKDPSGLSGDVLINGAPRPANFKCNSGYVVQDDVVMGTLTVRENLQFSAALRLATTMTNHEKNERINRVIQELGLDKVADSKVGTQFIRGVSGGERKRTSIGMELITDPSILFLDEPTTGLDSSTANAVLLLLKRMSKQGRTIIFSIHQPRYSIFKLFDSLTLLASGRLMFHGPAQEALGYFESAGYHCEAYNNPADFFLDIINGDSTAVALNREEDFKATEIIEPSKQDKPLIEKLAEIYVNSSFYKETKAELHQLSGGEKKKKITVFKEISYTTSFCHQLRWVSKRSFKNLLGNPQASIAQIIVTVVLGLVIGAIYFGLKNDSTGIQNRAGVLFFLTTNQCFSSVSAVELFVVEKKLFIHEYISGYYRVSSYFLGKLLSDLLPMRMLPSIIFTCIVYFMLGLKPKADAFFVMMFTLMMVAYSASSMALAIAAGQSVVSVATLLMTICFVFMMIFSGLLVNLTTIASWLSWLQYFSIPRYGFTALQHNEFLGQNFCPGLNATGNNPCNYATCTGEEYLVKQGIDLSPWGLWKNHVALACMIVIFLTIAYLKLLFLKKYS
Sequence of EGFR wild type (EGFR WT) (P00533 25-1210): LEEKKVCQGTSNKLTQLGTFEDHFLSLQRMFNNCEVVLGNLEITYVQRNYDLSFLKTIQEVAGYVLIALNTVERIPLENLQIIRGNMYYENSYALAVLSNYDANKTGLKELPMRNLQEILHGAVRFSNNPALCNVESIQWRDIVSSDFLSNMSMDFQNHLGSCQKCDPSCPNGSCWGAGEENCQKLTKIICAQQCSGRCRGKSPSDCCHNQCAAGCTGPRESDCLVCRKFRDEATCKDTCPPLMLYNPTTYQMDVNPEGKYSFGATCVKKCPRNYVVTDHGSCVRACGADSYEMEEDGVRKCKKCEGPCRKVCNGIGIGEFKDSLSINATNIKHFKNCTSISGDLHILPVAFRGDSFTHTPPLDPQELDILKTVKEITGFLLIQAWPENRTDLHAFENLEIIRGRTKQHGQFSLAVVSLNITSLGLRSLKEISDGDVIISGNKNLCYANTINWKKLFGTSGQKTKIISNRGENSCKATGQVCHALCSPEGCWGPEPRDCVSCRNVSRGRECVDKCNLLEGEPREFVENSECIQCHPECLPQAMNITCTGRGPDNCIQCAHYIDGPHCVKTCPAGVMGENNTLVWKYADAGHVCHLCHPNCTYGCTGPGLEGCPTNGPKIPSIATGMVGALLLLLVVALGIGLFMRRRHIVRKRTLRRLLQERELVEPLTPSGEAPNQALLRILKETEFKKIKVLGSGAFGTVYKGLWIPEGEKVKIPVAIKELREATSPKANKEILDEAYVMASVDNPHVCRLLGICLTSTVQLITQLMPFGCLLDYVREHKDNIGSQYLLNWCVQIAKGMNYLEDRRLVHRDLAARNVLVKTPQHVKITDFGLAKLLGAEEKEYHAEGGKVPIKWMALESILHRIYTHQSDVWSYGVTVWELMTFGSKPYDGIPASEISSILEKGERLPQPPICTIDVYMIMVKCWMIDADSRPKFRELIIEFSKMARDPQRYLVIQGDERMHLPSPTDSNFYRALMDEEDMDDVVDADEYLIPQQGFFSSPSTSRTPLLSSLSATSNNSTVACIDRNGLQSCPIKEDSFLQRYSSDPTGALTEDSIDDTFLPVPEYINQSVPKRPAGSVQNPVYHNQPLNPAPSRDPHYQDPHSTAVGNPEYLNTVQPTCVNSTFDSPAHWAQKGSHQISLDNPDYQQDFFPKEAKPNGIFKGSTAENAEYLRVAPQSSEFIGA
Sequence of EGFR (P00533 25-1210): as above

`C=CC(=O)N1CCCC[C@@H](c2ccc3ncnc(Nc4ccc(Oc5ccc6c(c5)ncn6C)c(C)c4F)c3n2)C1` (racemic) [Example 145, rac-(R)-1-(3-(4-((2-fluoro-3-methyl-4-((1-methyl-1H-benzo[d]imidazol-5-yl)oxy)phenyl)amino)pyrido[3,2-d]pyrimidin-6-yl)azepan-1-yl)prop-2-en-1-one]: the pIC50 is 6.24 in data set [1] (setting [7]), 7.82 in data set [2] (ErbB2 YVMA phosphorylation), 8.23 in data set [3] (ErbB2 WT enzyme) and 6.39 in data set [4] (EGFR enzyme). Further, the efflux ratio at 2 h, 1 µM worked out at 1.4 in data set [5] and 6.4 in data set [6].

Turning to `C=CC(=O)N1CC2CC(C1)N2c1ccc2ncnc(Nc3ccc(Oc4cnc5c(c4)ncn5C)c(C)c3F)c2n1` [Example 435], the pIC50 was 5.94 in data set [1] (setting [8]), 7.80 in data set [2] (setting [9]), 6.50 in data set [3] (ErbB2 WT enzyme assay) and 6.23 in data set [4] (EGFR enzyme assay). The efflux ratio at 2 h, 1 µM in data set [5] was determined as 2; in data set [6], 1.5.

On to `C=CC(=O)N1CCC(c2ccc3ncnc(Nc4ccc(Oc5ccn6ncnc6c5)c(C)c4F)c3n2)CC12CC2` (stereo not drawn) [Example 270], for which the pIC50 is 6.31 in data set [1] (setting [8]), 7.70 in data set [2] (setting [9]), 7.68 in data set [3] (ErbB2 WT enzyme assay) and 6.03 in data set [4] (EGFR enzyme assay). Also, the efflux ratio at 2 h, 1 µM was 1.1 in data set [5] and 1.6 in data set [6].

`C=CC(=O)N1CC(c2ccc3ncnc(Nc4ccc(Oc5ccc6c(c5)ncn6C)c(C)c4F)c3n2)CC1C` (stereo not drawn) [Example 124, 1-(4-(4-((2-fluoro-3-methyl-4-((1-methyl-1H-benzo[d]imidazol-5-yl)oxy)phenyl)amino)pyrido[3,2-d]pyrimidin-6-yl)-2-methylpyrrolidin-1-yl)prop-2-en-1-one]: the pIC50 in data set [1] (setting [7]) is 5.71; in data set [2] (ErbB2 YVMA phosphorylation), 7.94; in data set [3] (ErbB2 WT enzyme), 7.52; in data set [4] (EGFR enzyme), 5.41. Besides, the efflux ratio at 2 h, 1 µM in data set [5] came to 5.2; in data set [6] it was 1.6.

For `C=CC(=O)N1CCN(c2ccc3ncnc(Nc4ccc(Oc5ccn6ncnc6c5)c(C)c4F)c3n2)CC1` [Example 96, 1-(4-(4-((4-([1,2,4]triazolo[1,5-a]pyridin-7-yloxy)-2-fluoro-3-methylphenyl)amino)pyrido[3,2-d]pyrimidin-6-yl)piperazin-1-yl)prop-2-en-1-one], the pIC50 in data set [1] (setting [7]) was 6.27; in data set [2] (ErbB2 YVMA phosphorylation), 8.17; in data set [3] (ErbB2 WT enzyme), 7.78; in data set [4] (EGFR enzyme) it was 6.08. Further, the figures for the efflux ratio at 2 h, 1 µM in data set [5] and in data set [6] were 6.1 and 1.8, respectively.

Regarding `C=CC(=O)N1CC2CC(C1)N2c1ccc2ncnc(Nc3cc(Cl)c(Oc4ccn5ncnc5c4)cc3F)c2n1` [Example 45, 1-(6-(4-((4-([1,2,4]triazolo[1,5-a]pyridin-7-yloxy)-5-chloro-2-fluorophenyl)amino)pyrido[3,2-d]pyrimidin-6-yl)-3,6-diazabicyclo[3.1.1]heptan-3-yl)prop-2-en-1-one], the pIC50 was 5.56 in data set [1] (setting [7]), 7.77 in data set [2] (ErbB2 YVMA phosphorylation), 6.65 in data set [3] (ErbB2 WT enzyme) and 5.08 in data set [4] (EGFR enzyme). Also, the efflux ratio at 2 h, 1 µM in data set [5] was 5.6; in data set [6], 2.5.

Regarding `C=CC(=O)N1[C@H]2CC[C@@H]1[C@@H](c1ccc3ncnc(Nc4ccc(Oc5ccn6ncnc6c5)c(C)c4F)c3n1)C2` (single isomer, unassigned) [Example 229], the pIC50 in data set [1] (setting [7]) is no more than 5.30; in data set [2] (ErbB2 YVMA phosphorylation), 7.52; in data set [3] (ErbB2 WT enzyme) it was 7.78; in data set [4] (EGFR enzyme) it was 6.42. The efflux ratio at 2 h, 1 µM in data set [5] worked out at 3; in data set [6], 0.7.

As to `C=CC(=O)N1CCCC(c2ccc3ncnc(Nc4cc(C)c(Oc5cnc6c(c5)ncn6C)cc4F)c3n2)CC1` (stereo not drawn) [Example 412], the pIC50 was no more than 5.30 in data set [1] (setting [8]), 7.53 in data set [2] (setting [9]), 6.69 in data set [3] (ErbB2 WT enzyme assay) and no more than 5.00 in data set [4] (EGFR enzyme assay). The efflux ratio at 2 h, 1 µM in data set [5] is 3; in data set [6], 1.6.

As to `C=CC(=O)N1CCC[C@@H](c2ccc3ncnc(Nc4cc(C)c(Oc5ccc6c(c5)ncn6C)cc4F)c3n2)C1` (racemic) [Example 129, rac-(R)-1-(3-(4-((2-fluoro-5-methyl-4-((1-methyl-1H-benzo[d]imidazol-5-yl)oxy)phenyl)amino)pyrido[3,2-d]pyrimidin-6-yl)piperidin-1-yl)prop-2-en-1-one], the pIC50 was no more than 5.30 in data set [1] (setting [7]), 7.78 in data set [2] (ErbB2 YVMA phosphorylation), 7.18 in data set [3] (ErbB2 WT enzyme) and 5.10 in data set [4] (EGFR enzyme). Besides, the efflux ratio at 2 h, 1 µM in data set [5] and in data set [6] was 1.4 throughout.

On to `C=CC(=O)N1C2CC1CN(c1ccc3ncnc(Nc4cc(C)c(Oc5ccn6ncnc6c5)cc4F)c3n1)C2` [Example 43, 1-(3-(4-((4-([1,2,4]triazolo[1,5-a]pyridin-7-yloxy)-2-fluoro-5-methylphenyl)amino)pyrido[3,2-d]pyrimidin-6-yl)-3,6-diazabicyclo[3.1.1]heptan-6-yl)prop-2-en-1-one], for which the pIC50 in data set [1] (setting [7]) was no more than 5.30; in data set [2] (ErbB2 YVMA phosphorylation), 7.67; in data set [3] (ErbB2 WT enzyme) it was 6.92; in data set [4] (EGFR enzyme), no more than 5.00. For the same compound, the results for the efflux ratio at 2 h, 1 µM in data set [5] and in data set [6] were 4.1 and 3, respectively.

For the compound `C=CC(=O)N1CCN(c2ccc3ncnc(Nc4cc(C)c(Oc5ccn6ncnc6c5)cc4F)c3n2)CC1(C)C` [Example 73, 1-(4-(4-((4-([1,2,4]triazolo[1,5-a]pyridin-7-yloxy)-2-fluoro-5-methylphenyl)amino)pyrido[3,2-d]pyrimidin-6-yl)-2,2-dimethylpiperazin-1-yl)prop-2-en-1-one], the pIC50 was 5.62 in data set [1] (setting [7]), 7.54 in data set [2] (ErbB2 YVMA phosphorylation), 7.44 in data set [3] (ErbB2 WT enzyme) and 5.29 in data set [4] (EGFR enzyme). In addition, the efflux ratio at 2 h, 1 µM in data set [5] worked out at 4.3; in data set [6], 1.1.

Turning to `C=CC(=O)N1C[C@H]2C[C@H](c3ccc4ncnc(Nc5ccc(Oc6ccc7c(c6)ncn7C)c(C)c5F)c4n3)C[C@H]2C1` [Example 138, 1-((3aR,5s,6aS)-5-(4-((2-fluoro-3-methyl-4-((1-methyl-1H-benzo[d]imidazol-5-yl)oxy)phenyl)amino)pyrido[3,2-d]pyrimidin-6-yl)hexahydrocyclopenta[c]pyrrol-2(1H)-yl)prop-2-en-1-one], the pIC50 in data set [1] (setting [7]) is no more than 5.30; in data set [2] (ErbB2 YVMA phosphorylation), 7.60; in data set [3] (ErbB2 WT enzyme), 7.66; in data set [4] (EGFR enzyme) it was 5.38. Moreover, the values for the efflux ratio at 2 h, 1 µM in data set [5] and in data set [6] were 1.8 and 6.8, respectively.

For the compound `C=CC(=O)N1CCN(c2ccc3ncnc(Nc4cc(Cl)c(Oc5ccn6ncnc6c5)cc4F)c3n2)C[C@@H]1C1CC1` [Example 286], the pIC50 in data set [1] (setting [8]) is no more than 5.30; in data set [2] (setting [9]), 7.78; in data set [3] (ErbB2 WT enzyme assay), 7.83; in data set [4] (EGFR enzyme assay), no more than 5.00. For the same compound, the efflux ratio at 2 h, 1 µM came out at 2 in data set [5] and 1 in data set [6].

For `C=CC(=O)N1CC[C@H]2C[C@H](c3ccc4ncnc(Nc5cc(C)c(Oc6ccn7ncnc7c6)cc5F)c4n3)C[C@H]21` (racemic) [Example 205, rac-1-((3aR,5S,6aR)-5-(4-((4-([1,2,4]triazolo[1,5-a]pyridin-7-yloxy)-2-fluoro-5-methylphenyl)amino)pyrido[3,2-d]pyrimidin-6-yl)hexahydrocyclopenta[b]pyrrol-1(2H)-yl)prop-2-en-1-one], the pIC50 in data set [1] (setting [7]) is 5.59; in data set [2] (ErbB2 YVMA phosphorylation), 7.62; in data set [3] (ErbB2 WT enzyme) it was 7.23; in data set [4] (EGFR enzyme), 5.62. In addition, the values for the efflux ratio at 2 h, 1 µM in data set [5] and in data set [6] were 4.5 and 1.2, respectively.

Turning to `C=CC(=O)N1C[C@H](c2ccc3ncnc(Nc4ccc(Oc5ccc6c(c5)ncn6C)c(C)c4F)c3n2)CC[C@H]1C` [Example 169, 1-((2R,5R)-5-(4-((2-fluoro-3-methyl-4-((1-methyl-1H-benzo[d]imidazol-5-yl)oxy)phenyl)amino)pyrido[3,2-d]pyrimidin-6-yl)-2-methylpiperidin-1-yl)prop-2-en-1-one], the pIC50 in data set [1] (setting [7]) was no more than 5.30; in data set [2] (ErbB2 YVMA phosphorylation) it was 7.63; in data set [3] (ErbB2 WT enzyme) it was 6.95; in data set [4] (EGFR enzyme) it was 5.74. Besides, the efflux ratio at 2 h, 1 µM in data set [5] amounted to 2.1; in data set [6] it was 1.

For the compound `C=CC(=O)N1CCN(c2ccc3ncnc(Nc4ccc(Oc5ccn6ncnc6c5)c(C)c4F)c3n2)C[C@H]1C(C)(C)C` [Example 303], the pIC50 in data set [1] (setting [8]) was 5.59; in data set [2] (setting [9]), 7.74; in data set [3] (ErbB2 WT enzyme assay) it was 7.70; in data set [4] (EGFR enzyme assay), 5.29. In addition, the efflux ratio at 2 h, 1 µM in data set [5] was 1.1; in data set [6], 1.3.

As for `C=CC(=O)N1CC[C@H](c2ccc3ncnc(Nc4ccc(Oc5ccc6c(c5)ncn6C)c(C)c4F)c3n2)CC(C)(C)C1` (racemic) [Example 140, rac-(R)-1-(5-(4-((2-fluoro-3-methyl-4-((1-methyl-1H-benzo[d]imidazol-5-yl)oxy)phenyl)amino)pyrido[3,2-d]pyrimidin-6-yl)-3,3-dimethylazepan-1-yl)prop-2-en-1-one], the pIC50 in data set [1] (setting [7]) was no more than 5.30; in data set [2] (ErbB2 YVMA phosphorylation), 7.51; in data set [3] (ErbB2 WT enzyme), 6.65; in data set [4] (EGFR enzyme), no more than 5.00. Besides, the figures for the efflux ratio at 2 h, 1 µM in data set [5] and in data set [6] were 1.9 and 1.2, respectively.
